The source of these data is a melting point compilation (Tetko et al.; mined from patent text by program, amines drawn as free bases though some values may be those of a salt).

The structures appear in SMILES notation.

In general, melting point refers to the temperature, or range, at which the solid turns liquid. `CCOCc1nc(N)c(N=O)c(=O)[nH]1` had a melting point of 163 to 165 °C.

`O=C1NCC(Cc2ccccc2Oc2ccccc2)O1` (stereo not given) came in with a melting point of 100 to 101 °C. In turn, `O=c1ccc2ccc(OCCCCCc3ccccc3)cc2o1` displayed a melting point of 103 °C.

`O=C(Nc1ccc(S(=O)(=O)C[N+](=O)[O-])cc1)c1ccccc1`: the melting point was in the range of 211 to 212 °C. For `O=C(CC(F)=C(F)F)Nc1cccc(C(=O)O)c1`, the melting point fell in the range of 252 to 255 °C. The figure for `O=C(NN=C1c2ccc(F)cc2CC1(O)c1ccc(F)cc1)Nc1ccc(Br)cc1` (stereo not given) is 235 to 237 °C. The molecule `Cc1[nH]cc2c(=O)n(-c3ccc(Cl)cc3)nc-2c1-c1ccc(N2CCOCC2)cc1` displayed a melting point of 306 to 315 °C. Then `COC(=O)CCC(=O)c1ccc(-c2ccccc2F)cc1`, with 75.5 to 77.5 °C; and `Clc1ccc(-c2cnccn2)cc1Cl`, with 118 to 119 °C; and `CC(=O)NC(CCc1ccc(C(O)CCCCCc2ccccc2)cc1)(CO[Si](C)(C)C(C)(C)C)CO[Si](C)(C)C(C)(C)C` (stereo not given), with 118 to 120 °C. In turn, `Nc1cccc(C(=O)Nc2ccc(NNC=O)cc2)c1` showed a melting point of 177 to 178 °C. Then `CC(C)(C)N(Cc1ccccc1)NC(=O)c1ccco1`, with 152 °C.

The molecule `CC(C(O)CCC1CC1)C1CCC2C3CC=C4CC(O)CCC4(C)C3CCC12C` (stereo not given) had a melting point of 174 to 175 °C. The figure for `CC1C(=O)N(c2cc(Cl)cc(Cl)c2)CS1=O` (stereo not given) is 146 to 149 °C; for `C#CCn1c(-c2ccccc2)nc(C(F)(F)F)c(CC)c1=O` it is 111 to 114 °C. Then `CCCCCCc1cc2c(s1)NC(=O)CN=C2c1ccc(OC)cc1`, with 123 to 125 °C; and `CCOc1ccc(C(=O)NCCc2ccc(S(=O)(=O)NC(=O)c3ccc(C(=O)NCC(=O)O)nc3)cc2)cc1OCC`, with > 230 °C; and `COC(=O)CCc1cc2cc(C(C)=O)ccc2n1S(=O)(=O)c1ccccc1`, with 122 to 127 °C.

For `CC(=O)Nc1ccc(Sc2ccc(F)cc2)cc1`, the melting point is 140 to 141 °C.

Consider `Cc1ccc(-c2nc(-c3ccc(C(=O)NCCCBr)cc3)cs2)cc1`, for which the melting point is 175 to 177 °C. Turning to `COC(=O)c1cc(Oc2c(Cl)cc(C(F)(F)F)cc2Cl)n[nH]1`, the melting point lay in the range of 114 to 116 °C. Then `Clc1ccc2c(c1)[nH]c1cc(Cl)ccc12`, with 188 to 189 °C. Then `CC=CCn1c(C)c(C)c2cnnc(OCc3c(F)cccc3F)c21`, with 85 to 94 °C; and `Cc1cc(F)ccc1Nc1nc(N(C)c2ccccc2)c2cccc(OCCCN(C)C)c2n1`, with 110 to 112 °C. Then `Nc1ccc(Cl)cc1C(=O)C(F)(F)Cl`, with 55 to 56 °C.

`CCCCN(CCCC)c1ccc(C=CC2=CC(=CC=CC3=C(C#N)C(=C(C#N)C#N)OC3(c3ccccc3)C(F)(F)F)CC(C)(C)C2)c(OC)c1` (stereo not given) registered a melting point of 164 to 166 °C.

`CNCCc1ccc2[nH]nc(S(=O)(=O)c3ccccc3)c2c1` showed a melting point of 42 °C. The figure for `COc1cc(Nc2c(C#N)cnc3cc(OCc4ccccc4)c(OC)cc23)c(Cl)cc1Cl` is 198 to 200 °C; for `Cc1ccc(-c2nc3ccccc3[nH]2)cn1` it is 266 °C. The figure for `COc1ccc(S(=O)(=O)N2C(=O)C(c3ccccc3O)(N3CCC[C@H]3C(=O)N(C)C)c3cc(Cl)ccc32)c(OC)c1` (stereo not given in full) is 143 °C. In turn, `CS(=O)(=O)c1cc(C(=O)O)cc(Cl)c1Nc1ccccc1` yielded a melting point of 187 to 189 °C. Then `CC(=O)n1ccc2c1CCn1ccnc1C2=C1CCN(C)CC1`, with 198 °C; and `CCn1cc(-c2cccc(C(F)(F)F)c2)c(=O)n1-c1ccc(F)cc1`, with 92 °C; and `CN(C)c1nc2ccccc2nc1/C=C/c1nc(Cl)cc(N2CCCC2)n1`, with 196 to 197 °C. The figure for `O=C1c2ccccc2-n2cnc(-c3noc(CCl)n3)c2[C@@H]2CCN12` is 205 to 207 °C.
